Measured values published in ChEMBL document CHEMBL4130422, “Design, synthesis and biological evaluation of novel C-29 carbamate celastrol derivatives as potent and selective cytotoxic compounds” (Eur J Med Chem, 2017).
One block for each molecule: values may come before it. Active and inactive are the calls of the source. The calls are words filed in the database; no cut-off is given here.

Key:
A549 = test: Antiproliferative activity against human A549 cells after 72 hrs by MTT assay; format: functional, cell-based; conditions: A549, 72 h
MIA PaCa-2 = test: Antiproliferative activity against human MIAPaCa2 cells after 72 hrs by MTT assay; format: functional, cell-based; conditions: MIA PaCa-2, 72 h
BJ = test: Antiproliferative activity against human BJ cells after 72 hrs by MTT assay; format: cell-based
HT-29 = test: Antiproliferative activity against human HT-29 cells after 72 hrs by MTT assay; format: functional, cell-based; conditions: HT-29, 72 h
SK-OV-3 [1] = test: Antiproliferative activity against human SKOV3 cells after 72 hrs by MTT assay; format: functional, cell-based; conditions: SK-OV-3, 72 h
MCF7 = test: Antiproliferative activity against human MCF7 cells after 72 hrs by MTT assay; format: functional, cell-based; conditions: MCF7, 72 h
MDA-MB-231 = test: Antiproliferative activity against human MDA-MB-231cells after 72 hrs by MTT assay; format: functional, cell-based; conditions: MDA-MB-231, 72 h
SK-OV-3 [2] = test: Anticlonogenic activity against human SKOV3 cells assessed as reduction in colony formation efficiency treated for 24 hrs followed by incubation in drug free medium for 12 days by crystal violet staining-based assay; format: functional, cell-based
SK-OV-3 [3] = test: Cell cycle arrest in human SKOV3 cells at IC50 at 24 to 72 hrs by propidium iodide staining-based FACS analysis; format: functional
SK-OV-3 [4] = test: Induction of apoptosis in human SKOV3 cells assessed as early apoptotic cells at IC50 after 72 by Annexin V-FITC/propidium iodide double-staining-based FACS analysis (reference value: 4.5%); format: functional
SK-OV-3 [5] = test: Induction of apoptosis in human SKOV3 cells at IC50 by Annexin V-FITC/propidium iodide double-staining-based FACS analysis; format: functional, cell-based; conditions: TDE = time-dependent effect
SK-OV-3 [6] = test: Induction of apoptosis in human SKOV3 cells assessed as nuclear condensation at IC50 after 48 hrs by Hoechst 33342 staining-based fluorescence microscopic method; format: functional, cell-based
SK-OV-3 [7] = test: Induction of apoptosis in human SKOV3 cells assessed as nuclear fragmentation at IC50 after 48 hrs by Hoechst 33342 staining-based fluorescence microscopic method; format: functional, cell-based
SK-OV-3 [8] = test: Induction of apoptosis in human SKOV3 cells assessed as cell shrinkage at IC50 after 48 hrs by Hoechst 33342 staining-based fluorescence microscopic method; format: functional
SK-OV-3 [9] = test: Induction of apoptosis in human SKOV3 cells assessed as formation of apoptotic bodies at IC50 after 48 hrs by Hoechst 33342 staining-based fluorescence microscopic method; format: functional, cell-based
SK-OV-3 [10] = test: Induction of apoptosis in human SKOV3 cells assessed as decrease in procaspase-8 expression levels at IC50 after 72 hrs by Western blot analysis; format: functional, cell-based
SK-OV-3 [11] = test: Induction of apoptosis in human SKOV3 cells assessed as decrease in procaspase-3 expression levels at IC50 after 72 hrs by Western blot analysis; format: functional, cell-based
SK-OV-3 [12] = test: Induction of apoptosis in human SKOV3 cells assessed as increase in cleaved caspase-8 expression levels at IC50 after 72 hrs by Western blot analysis; format: functional, cell-based
SK-OV-3 [13] = test: Induction of apoptosis in human SKOV3 cells assessed as increase in cleaved caspase-3 expression levels at IC50 after 72 hrs by Western blot analysis; format: functional, cell-based
SK-OV-3 [14] = test: Induction of apoptosis in human SKOV3 cells assessed as decrease in procaspase-9 expression levels at IC50 after 72 hrs by Western blot analysis; format: functional, cell-based
SK-OV-3 [15] = test: Induction of apoptosis in human SKOV3 cells assessed as increase in cleaved caspase-9 expression levels at IC50 after 72 hrs by Western blot analysis; format: functional, cell-based
SK-OV-3 [16] = test: Induction of apoptosis in human SKOV3 cells assessed as decrease in full-length PARP expression levels at IC50 after 72 hrs by Western blot analysis; format: functional, cell-based
SK-OV-3 [17] = test: Induction of apoptosis in human SKOV3 cells assessed as increase in cleaved PARP expression levels at IC50 after 72 hrs by Western blot analysis; format: functional, cell-based
SK-OV-3 [18] = test: Induction of apoptosis in human SKOV3 cells assessed as increase in Bid expression levels at IC50 after 72 hrs by Western blot analysis; format: functional, cell-based
SK-OV-3 [19] = test: Induction of apoptosis in human SKOV3 cells assessed as increase in Bax expression levels at IC50 after 72 hrs by Western blot analysis; format: functional, cell-based
SK-OV-3 [20] = test: Induction of apoptosis in human SKOV3 cells assessed as decrease in Bcl-2 expression levels at IC50 after 72 hrs by Western blot analysis; format: functional, cell-based
SK-OV-3 [21] = test: Synergistic antiproliferative activity against human SKOV3 cells assessed as combination index at 0.125 uM after 72 hrs in presence of 8 uM carboplatin by MTT assay; format: functional
SK-OV-3 [22] = test: Synergistic antiproliferative activity against human SKOV3 cells assessed as combination index at 0.25 uM after 72 hrs in presence of 16 uM carboplatin by MTT assay; format: functional
SK-OV-3 [23] = test: Synergistic antiproliferative activity against human SKOV3 cells assessed as combination index at 0.5 uM after 72 hrs in presence of 32 uM carboplatin by MTT assay; format: functional
SK-OV-3 [24] = test: Synergistic antiproliferative activity against human SKOV3 cells assessed as combination index at 1 uM after 72 hrs in presence of 64 uM carboplatin by MTT assay; format: functional
SK-OV-3 [25] = test: Synergistic antiproliferative activity against human SKOV3 cells assessed as combination index at 2 uM after 72 hrs in presence of 128 uM carboplatin by MTT assay; format: functional

SMILES: Cc1c(O)c(O)cc2c1CC=C1[C@@]2(C)CC[C@@]2(C)[C@@H]3C[C@](C)(C(=O)O)CC[C@]3(C)CC[C@]12C [DIHYDROCELASTROL]
- IC50 (A549): 3150 nM
- IC50 (MIA PaCa-2): 720 nM

SMILES: CCOC(=O)N[C@]1(C)CC[C@]2(C)CC[C@]3(C)C4=CC(=O)c5c(cc(O)c(O)c5C)[C@]4(C)CC[C@@]3(C)[C@@H]2C1
- IC50 (A549): > 10000 nM
- IC50 (MIA PaCa-2): > 10000 nM

SMILES: CC(=O)Oc1cc2c(c(C)c1OC(C)=O)C(=O)C=C1[C@@]2(C)CC[C@@]2(C)[C@@H]3C[C@](C)(C=O)CC[C@]3(C)CC[C@]12C
- IC50 (A549): 2770 nM
- IC50 (MIA PaCa-2): 380 nM

SMILES: CC(=O)Oc1cc2c(c(C)c1OC(C)=O)CC=C1[C@@]2(C)CC[C@@]2(C)[C@@H]3C[C@](C)(N=C=O)CC[C@]3(C)CC[C@]12C
- IC50 (A549): 2890 nM
- IC50 (MIA PaCa-2): 1410 nM

SMILES: COC(=O)N[C@]1(C)CC[C@]2(C)CC[C@]3(C)C4=CC(=O)c5c(cc(OC)c(O)c5C)[C@]4(C)CC[C@@]3(C)[C@@H]2C1
- IC50 (A549): > 10000 nM
- IC50 (MIA PaCa-2): > 10000 nM

SMILES: CC1=C(O)C(=O)C=C2C1=CC=C1[C@@]2(C)CC[C@@]2(C)[C@@H]3C[C@](C)(C(=O)O)CC[C@]3(C)CC[C@]12C [CELASTROL]
- IC50 (A549): 1560 nM
- IC50 (MIA PaCa-2): 460 nM
- IC50 (BJ): 2740 nM
- IC50 (HT-29): 1280 nM
- IC50 (SK-OV-3 [1]): 1160 nM
- IC50 (MCF7): 1350 nM
- IC50 (MDA-MB-231): 1320 nM

SMILES: CC1=C(O)C(=O)C=C2C1=CC=C1[C@@]2(C)CC[C@@]2(C)[C@@H]3C[C@](C)(N=C=O)CC[C@]3(C)CC[C@]12C
- IC50 (A549): 2470 nM
- IC50 (MIA PaCa-2): 530 nM

SMILES: COC(=O)N[C@]1(C)CC[C@]2(C)CC[C@]3(C)C4=CC(=O)c5c(cc(O)c(O)c5C)[C@]4(C)CC[C@@]3(C)[C@@H]2C1
- IC50 (A549): 6530 nM
- IC50 (MIA PaCa-2): 6500 nM
- IC50 (BJ): > 30000 nM
- IC50 (SK-OV-3 [1]): 7980 nM

SMILES: CC(=O)Oc1cc2c(c(C)c1OC(C)=O)C(=O)C=C1C2(C)CC[C@@]2(C)[C@@H]3C[C@](C)(C(=O)O)CC[C@]3(C)CC[C@]12C (single isomer, unassigned)
- IC50 (A549): > 10000 nM
- IC50 (MIA PaCa-2): > 10000 nM

SMILES: CCOC(=O)N[C@]1(C)CC[C@]2(C)CC[C@]3(C)C4=CC(=O)c5c(cc(OC)c(OC)c5C)[C@]4(C)CC[C@@]3(C)[C@@H]2C1
- IC50 (A549): > 10000 nM
- IC50 (MIA PaCa-2): > 10000 nM

SMILES: CC(=O)Oc1cc2c(c(C)c1OC(C)=O)C(=O)C=C1C2(C)CC[C@@]2(C)[C@@H]3C[C@](C)(N=C=O)CC[C@]3(C)CC[C@]12C (single isomer, unassigned)
- IC50 (A549): > 10000 nM
- IC50 (MIA PaCa-2): > 10000 nM

The next lines start with results.

- IC50 (A549): 1580 nM
- IC50 (MIA PaCa-2): 1000 nM
SMILES: CC1=C(O)C(=O)C=C2C1=CC=C1[C@@]2(C)CC[C@@]2(C)[C@@H]3C[C@](C)(NC(=O)OCC(C)(C)CO)CC[C@]3(C)CC[C@]12C

- IC50 (A549): 1050 nM
- IC50 (MIA PaCa-2): 320 nM
- IC50 (HT-29): 1020 nM
- IC50 (SK-OV-3 [1]): 450 nM
- IC50 (MCF7): 590 nM
- IC50 (MDA-MB-231): 520 nM
SMILES: CCCCCOC(=O)N[C@]1(C)CC[C@]2(C)CC[C@]3(C)C4=CC=C5C(=CC(=O)C(O)=C5C)[C@]4(C)CC[C@@]3(C)[C@@H]2C1
- IC50 (BJ): 880 nM

- IC50 (A549): 880 nM
- IC50 (MIA PaCa-2): 330 nM
- IC50 (HT-29): 1540 nM
- IC50 (SK-OV-3 [1]): 540 nM
- IC50 (MCF7): 1680 nM
- IC50 (MDA-MB-231): 1350 nM
SMILES: COC(=O)N[C@]1(C)CC[C@]2(C)CC[C@]3(C)C4=CC(=O)c5c(cc(OC(C)=O)c(OC(C)=O)c5C)[C@]4(C)CC[C@@]3(C)[C@@H]2C1
- IC50 (BJ): 3680 nM
- Activity (SK-OV-3 [2]): Dose-dependent effect
- Activity (SK-OV-3 [3]): inactive
- Activity (SK-OV-3 [4]): 29.9%
- Activity (SK-OV-3 [5]): Tde
- Activity (SK-OV-3 [6]): Active
- Activity (SK-OV-3 [7]): Active
- Activity (SK-OV-3 [8]): Active
- Activity (SK-OV-3 [9]): Active
- Activity (SK-OV-3 [10]): Active
- Activity (SK-OV-3 [11]): Active
- Activity (SK-OV-3 [12]): Active
- Activity (SK-OV-3 [13]): Active
- Activity (SK-OV-3 [14]): inactive
- Activity (SK-OV-3 [15]): inactive
- Activity (SK-OV-3 [16]): Active
- Activity (SK-OV-3 [17]): Active
- Activity (SK-OV-3 [18]): inactive
- Activity (SK-OV-3 [19]): inactive
- Activity (SK-OV-3 [20]): inactive
- CI (SK-OV-3 [21]): 1.112
- CI (SK-OV-3 [22]): 0.9285
- CI (SK-OV-3 [23]): 0.6273
- CI (SK-OV-3 [24]): 0.7863
- CI (SK-OV-3 [25]): 1.076

- IC50 (A549): 1000 nM
- IC50 (MIA PaCa-2): 400 nM
SMILES: CCCOC(=O)N[C@]1(C)CC[C@]2(C)CC[C@]3(C)C4=CC=C5C(=CC(=O)C(O)=C5C)[C@]4(C)CC[C@@]3(C)[C@@H]2C1

- IC50 (A549): 1270 nM
- IC50 (MIA PaCa-2): 360 nM
SMILES: CC(=O)Oc1cc2c(c(C)c1OC(C)=O)C(=O)C=C1[C@@]2(C)CC[C@@]2(C)[C@@H]3C[C@](C)(C(N)=O)CC[C@]3(C)CC[C@]12C

- IC50 (A549): 2230 nM
- IC50 (MIA PaCa-2): 800 nM
SMILES: CC1=C(O)C(=O)C=C2C1=CC=C1[C@@]2(C)CC[C@@]2(C)[C@@H]3C[C@](C)(NC(=O)OCC(C)C)CC[C@]3(C)CC[C@]12C

- IC50 (A549): 1930 nM
- IC50 (MIA PaCa-2): 780 nM
SMILES: CCOC(=O)N[C@]1(C)CC[C@]2(C)CC[C@]3(C)C4=CC=C5C(=CC(=O)C(O)=C5C)[C@]4(C)CC[C@@]3(C)[C@@H]2C1

- IC50 (A549): 1740 nM
- IC50 (MIA PaCa-2): 580 nM
SMILES: COC(=O)N[C@]1(C)CC[C@]2(C)CC[C@]3(C)C4=CC=C5C(=CC(=O)C(O)=C5C)[C@]4(C)CC[C@@]3(C)[C@@H]2C1

- IC50 (A549): 1870 nM
- IC50 (MIA PaCa-2): 480 nM
SMILES: CC(=O)Oc1cc2c(c(C)c1OC(C)=O)C(=O)C=C1[C@@]2(C)CC[C@@]2(C)[C@@H]3C[C@](C)(CO)CC[C@]3(C)CC[C@]12C

- IC50 (A549): 2210 nM
- IC50 (MIA PaCa-2): 560 nM
SMILES: CC(=O)Oc1cc2c(c(C)c1OC(C)=O)CC=C1[C@@]2(C)CC[C@@]2(C)[C@@H]3C[C@](C)(C(=O)O)CC[C@]3(C)CC[C@]12C
